Values quoted from earlier work in patent US11596693B2, “Antibody-drug conjugates and uses thereof” (priority 2019, dated 2023).
Square brackets hold non-standard residues; d marks the D form. Peptide text beside a SMILES is read from it. * marks the point of attachment. Dolaproine = CO[C@@H]([C@@H]1CCCN1)[C@@H](C)C(=O)O; Dil = CC[C@H](C)[C@H](NC)[C@@H](CC(=O)O)OC; X1 = C[C@@H](N*)[C@@H](O)c1ccccc1; NMeV = CN[C@H](C(=O)O)C(C)C

Tests used:
many cells = conditions: for many cells
[1] = system: human-derived cancer cell lines; conditions: read-out: median inhibitory concentration

IC50 [1] [nM] | Compound | IC50 (many cells) [nM]
– | COc1cc2cc(c1Cl)N(C)C(=O)CC(OC(=O)[C@H](C)N(C)C(=O)CCS)C1(C)OC1C(C)C1CC(O)(NC(=O)O1)C(OC)/C=C/C=C(\C)C2 (stereo partly shown) [DM1] | ~0.01
– | COc1cc2cc(c1Cl)N(C)C(=O)CC(OC(=O)[C@H](C)N(C)C(=O)CCC(C)(C)S)C1(C)OC1C(C)C1CC(O)(NC(=O)O1)C(OC)/C=C/C=C(\C)C2 (stereo partly shown) [DM4] | ~0.001
– | CC[C@H](C)[C@@H]([C@@H](CC(=O)N1CCC[C@H]1[C@H](OC)[C@@H](C)C(=O)N[C@H](C)[C@@H](O)c1ccccc1)OC)N(C)C(=O)[C@@H](NC(=O)[C@@H](NC)C(C)C)C(C)C [MMAE, Monomethyl auristatin E] (H-[NMeV]V[Dil][Dolaproine]-X1) | 0.01 to 1
100 to 200 | COc1cccc2c1C(=O)c1c(O)c3c(c(O)c1C2=O)C[C@@](O)(C(=O)CO)C[C@@H]3O[C@H]1C[C@H](N)[C@H](O)[C@H](C)O1 [doxorubicins, Doxorubicin] | –
